Earlier results in publication PMC7751758, “Repurposing Sigma-1 Receptor Ligands for COVID-19 Therapy?” (Frontiers in Pharmacology, 2020).
Values joined by “and” are separate entries in the source; they are usually repeats but may differ in a detail not shown here. Equal values may be shown once. “Also recorded” adds a separate entry of the source. Read-outs that look alike come from different tables or passages of the source.

Tests used:
[1] = tested on: SARS-CoV-2 in Huh-7 cells; settings: devoid of cytotoxicity, ref Mirabelli et al., 2020
Sigma-1 receptor = settings: for IC50: read-out: Sigma-1 receptor affinity IC50; for Ki: read-out: Sigma-1 receptor affinity Ki
HCV infection = settings: without significantly reducing cell biomass; ref Mingorance et al., 2014
EBOV [2] = tested on: EBOV
HCoV-229E = settings: replication in cell culture
CHIKV = settings: cytopathic effect induced by Chikungunya virus and other alphaviruses (Semliki Forest virus and Sindbis virus)
EBV = settings: infection of B lymphocytes
[3] = tested on: HCV-induced cytopathic effect on the engineered cell line n4mBid; settings: leads of the cell protection screen; ref Chockalingam et al., 2010
[4] = tested on: HCV infection of human hepatocarcinoma Huh-7 cells; settings: absence of cytotoxicity at low micromolar and submicromolar concentrations; ref Gastaminza et al., 2010
EBOV [5] = settings: mouse, in vivo
[6] = associated with bioaccumulation of the drugs; ref Palmeira et al., 2020
EBOV [7] = settings: guinea pig, in vivo
[8] = tested on: H5N1 virus in A549 lung epithelial cells
H5N1 virus = settings: mouse, in vivo

## COc1ccc(CCN(C)CCCC(C#N)(c2ccc(OC)c(OC)c2)C(C)C)cc1OC (stereo not shown) [Verapamil]
[1]
  antiviral potency: below 1 µM
Sigma-1 receptor
  IC50: […]

## OCCOCCN1CCN(C(c2ccccc2)c2ccc(Cl)cc2)CC1 (stereo not shown) [Hydroxyzine]
Sigma-1 receptor
  IC50: 342 nM
  Ki: 46 nM
HCV infection
  reduction of HCV infection: more than one order of magnitude

## CN1[C@@H]2CC[C@H]1C[C@@H](OC(c1ccccc1)c1ccccc1)C2 [Benztropine]
Ebola virus (EBOV)
  cellular toxicity: < 30%
  viral inhibition: > 50%
MERS-CoV
  Antiviral activity: Virus: in vitro activity
EBOV [2]
  Antiviral activity: Virus: active
SARS-CoV
  Antiviral activity: Virus: in vitro activity; also recorded: SARS-CoV SARS-CoV-2
HCV infection
  reduction of HCV infection: more than one order of magnitude

## CN(C)C(=O)C(CCN1CCC(O)(c2ccc(Cl)cc2)CC1)(c1ccccc1)c1ccccc1 [Loperamide]
HCoV-229E; ref de Wilde et al., 2014, listed as loperamide
  Antiviral activity: Virus: inhibited the replication
SARS-CoV
  Antiviral activity: Virus: inhibited the replication

## CCSc1ccc2c(c1)N(CCCN1CCN(C)CC1)c1ccccc1S2 [Thiethylperazine]
CHIKV; ref Pohjala et al., 2011, listed as thiethylperazine
  Antiviral activity: Virus: inhibition of the cytopathic effect
MERS-CoV
  Antiviral activity: Virus: in vitro activity
Sigma-1 receptor
  IC50: 528 nM
SARS-CoV
  Antiviral activity: Virus: in vitro activity; also recorded: SARS-CoV SARS-CoV-2

## CN(C)CCCN1c2ccccc2Sc2ccc(Cl)cc21 [Chlorpromazine]
CHIKV; ref Pohjala et al., 2011, listed as chlorpromazine
  Antiviral activity: Virus: inhibition of the cytopathic effect
EBV; ref Nemerow and Cooper, 1984, listed as chlorpromazine
  Antiviral activity: Virus: inhibit infection of B lymphocytes
HCoV-229E; ref de Wilde et al., 2014, listed as chlorpromazine
  Antiviral activity: Virus: inhibited the replication
MERS-CoV
  Antiviral activity: Virus: in vitro activity
Sigma-1 receptor
  Ki: 146 nM
SARS-CoV
  Antiviral activity: Virus: inhibited the replication; also recorded: in vitro activity; also recorded: SARS-CoVSARS-CoV-2
HCV infection
  reduction of HCV infection: more than one order of magnitude

## CN1CCN(CCCN2c3ccccc3Sc3ccc(C(F)(F)F)cc32)CC1 [Trifluoperazine]
[3]
  alleviation of HCV-induced cytopathic effect (n4mBid cell viability relative to untreated cells): increase n4mBid cell viability
EBV; ref Nemerow and Cooper, 1984, listed as trifluoperazine
  Antiviral activity: Virus: inhibit infection of B lymphocytes
[4]
  reduction in HCV infection of Huh-7 cells, as compared to the vehicle DMSO control: > 85%

## CNCCC(Oc1ccc(C(F)(F)F)cc1)c1ccccc1 (stereo not shown) [Fluoxetine]
HCV infection
  reduction of HCV infection: more than one order of magnitude

## CN[C@H]1CC[C@@H](c2ccc(Cl)c(Cl)c2)c2ccccc21 [Sertraline]
EBOV [5]
  protection in a murine EBOV infection model: protective ability
EBOV [2]
  Antiviral activity: Virus: active

## CCN(CCO)CCCC(C)Nc1ccnc2cc(Cl)ccc12 (stereo not shown) [Hydroxychloroquine]
[6]
  side effects: serious retinopathies and cardiopathies
MERS-CoV
  Antiviral activity: Virus: in vitro activity
COVID-19; first clinical studies, ref Geleris et al., 2020, Mitjà et al., Roustit et al.
  efficacy in COVID-19 patients: do not support efficacy
COVID-19; human, in vivo
  adverse drug reactions in patients with COVID-19: serious adverse drug reactions
COVID-19; large, randomized clinical trial in hospitalized patients, ref FDA communication, 2020
  decreasing the likelihood of death or speeding recovery: no benefit
Sigma-1 receptor
  IC50: 2120 nM
SARS-CoV
  Antiviral activity: Virus: in vitro activity

## O=C(c1ccc(OCCN2CCCCC2)cc1)c1c(-c2ccc(O)cc2)sc2cc(O)ccc12 [Raloxifene]
[3]
  alleviation of HCV-induced cytopathic effect (n4mBid cell viability relative to untreated cells): increase n4mBid cell viability
Sigma-1 receptor
  IC50: 122 nM
  Ki: 38 nM
HCV infection
  reduction of HCV infection: more than one order of magnitude

## CC[C@H]1OC(=O)[C@H](C)[C@@H](O[C@H]2C[C@@](C)(OC)[C@@H](O)[C@H](C)O2)[C@H](C)[C@@H](O[C@@H]2O[C@H](C)C[C@H](N(C)C)[C@H]2O)[C@](C)(O)C[C@@H](C)CN(C)[C@H](C)[C@@H](O)[C@]1(C)O [azithromycin]
EBOV [7]
  survival: none of the tested doses increased survival
EBOV [5]
  survival of infected mice: increased survival

## CCN(CC)CCOc1ccc(C(=C(Cl)c2ccccc2)c2ccccc2)cc1 [Clomiphene]
Ebola virus (EBOV)
  cellular toxicity: < 30%
  viral inhibition: > 50%
EBOV [2]
  Antiviral activity: Virus: active
HCV infection
  reduction of HCV infection: more than one order of magnitude

## OCCN1CCN(CCCN2c3ccccc3Sc3ccc(Cl)cc32)CC1 [Perphenazine]
[3]
  alleviation of HCV-induced cytopathic effect (n4mBid cell viability relative to untreated cells): increase n4mBid cell viability
CHIKV; ref Pohjala et al., 2011, listed as perphenazine
  Antiviral activity: Virus: inhibition of the cytopathic effect
HCV infection
  reduction of HCV infection: more than one order of magnitude

## CC(C(O)c1ccc(O)cc1)N1CCC(Cc2ccccc2)CC1 (stereo not shown) [Ifenprodil]
[8]
  cell viability in vitro: increased cell viability
[3]
  alleviation of HCV-induced cytopathic effect (n4mBid cell viability relative to untreated cells): increase n4mBid cell viability; also recorded: inhibit the HCV-induced cytopathic effect
H5N1 virus
  leukocyte infiltration and lung injury: markedly decreased
  survival: improved survival
Sigma-1 receptor
  IC50: 5.5 nM

## CC/C(=C(\c1ccccc1)c1ccc(OCCN(C)C)cc1)c1ccccc1 [Tamoxifen]
MERS-CoV
  Antiviral activity: Virus: in vitro activity
SARS-CoV
  Antiviral activity: Virus: in vitro activity; also recorded: SARS-CoV SARS-CoV-2
HCV infection
  reduction of HCV infection: more than one order of magnitude

## CSc1ccc2c(c1)N(CCC1CCCCN1C)c1ccccc1S2 (stereo not shown) [Thioridazine]
CHIKV; ref Pohjala et al., 2011, listed as thioridazine
  Antiviral activity: Virus: inhibition of the cytopathic effect
EBOV [2]
  Antiviral activity: Virus: active

## CN(C)CCC=C1c2ccccc2COc2ccccc21 [Doxepin]
CHIKV; ref Pohjala et al., 2011, listed as doxepin
  Antiviral activity: Virus: inhibition of the cytopathic effect
[4]
  reduction in HCV infection of Huh-7 cells, as compared to the vehicle DMSO control: > 85%

## CN1CCN(CCCN2c3ccccc3Sc3ccc(Cl)cc32)CC1 [Prochlorperazine]
Ebola virus (EBOV)
  cellular toxicity: < 30%
  viral inhibition: > 50%
EBV; ref Nemerow and Cooper, 1984
  Antiviral activity: Virus: inhibit infection of B lymphocytes
[4]
  reduction in HCV infection of Huh-7 cells, as compared to the vehicle DMSO control: > 85%
EBOV [2]
  Antiviral activity: Virus: active

## CC(C)COCC(CN(Cc1ccccc1)c1ccccc1)N1CCCC1 (stereo not shown) [Bepridil]
EBOV [5]
  protection in a murine EBOV infection model: protective ability
Sigma-1 receptor
  IC50: 365 nM
EBOV [2]
  Antiviral activity: Virus: active

## CN1CCC(CN2c3ccccc3Sc3ccccc32)C1 (stereo not shown) [Methdilazine]
CHIKV; ref Pohjala et al., 2011, listed as methdilazine
  Antiviral activity: Virus: inhibition of the cytopathic effect
Sigma-1 receptor
  IC50: 167 nM

## CN(C)CCCN1c2ccccc2CCc2ccccc21 [Imipramine]
Sigma-1 receptor
  IC50: 529 nM
  Ki: 343 nM
HCV infection
  reduction of HCV infection: more than one order of magnitude

## Cc1cccc(C)c1OCC(=O)N[C@@H](Cc1ccccc1)[C@@H](O)C[C@H](Cc1ccccc1)NC(=O)[C@H](C(C)C)N1CCCNC1=O [lopinavir]
HCoV-229E; ref de Wilde et al., 2014
  Antiviral activity: Virus: inhibited the replication
SARS-CoV
  Antiviral activity: Virus: inhibited the replication

## CN(C)CCCN1c2ccccc2CCc2ccc(Cl)cc21 [Clomipramine]
MERS-CoV
  Antiviral activity: Virus: in vitro activity
EBOV [2]
  Antiviral activity: Virus: active
SARS-CoV
  Antiviral activity: Virus: in vitro activity; also recorded: SARS-CoV SARS-CoV-2
HCV infection
  reduction of HCV infection: more than one order of magnitude

## CC(CN1c2ccccc2Sc2ccccc21)N(C)C (stereo not shown) [Promethazine]
EBV; ref Nemerow and Cooper, 1984, listed as promethazine
  Antiviral activity: Virus: inhibit infection of B lymphocytes
MERS-CoV
  Antiviral activity: Virus: in vitro activity
Sigma-1 receptor
  IC50: 857 nM
SARS-CoV
  Antiviral activity: Virus: in vitro activity; also recorded: SARS-CoV SARS-CoV-2

## CN(C)CCC=C1c2ccccc2CCc2ccccc21 [Amitriptyline]
[8]
  viability of A549 cells infected with H5N1: increased viability
[3]
  alleviation of HCV-induced cytopathic effect (n4mBid cell viability relative to untreated cells): increase n4mBid cell viability; also recorded: inhibit the HCV-induced cytopathic effect
H5N1 virus
  infiltrating cell count: reduced
  lung edema and survival: improved
  lung injury: decreased
Sigma-1 receptor
  IC50: 216 nM and 300 nM
  Ki: 287 nM

## O=C(CCCN1CCC(O)(c2ccc(Cl)cc2)CC1)c1ccc(F)cc1 [Haloperidol]
EBV; ref Nemerow and Cooper, 1984, listed as haloperidol
  Antiviral activity: Virus: inhibit infection of B lymphocytes
[4]
  reduction in HCV infection of Huh-7 cells, as compared to the vehicle DMSO control: > 85%

## CNCCCN1c2ccccc2CCc2ccccc21 [Desipramine]
Sigma-1 receptor
  IC50: 1190 nM
  Ki: 1990 nM
HCV infection
  reduction of HCV infection: more than one order of magnitude
